Columns and labels:
[1] = system: hTERT-BJ1 cells; experiment: MTT relative viability, PhTERT-SEAP (hTERT-BJ1) cells; conditions: PhTERT-SEAP (hTERT-BJ1)
[2] = system: non-small-cell lung cancer cells H1299; experiment: MTT relative viability, PhTERT-SEAP (H1299) cells; conditions: PhTERT-SEAP(hTERT-H1299)
[3] = system: rat glioma C6 cells; experiment: Cytotoxicity assay (XTT colorimetric), C6 cells; format: cell-based; conditions: 48 h of drug exposure
[4] = system: human hepatoma G2 cells; experiment: Cytotoxicity assay (XTT colorimetric), Hep G2; format: cell-based; conditions: 48 h of drug exposure
[5] = system: transcriptional activity of hTERT; experiment: SEAP reporter assay of hTERT expression, PhTERT-SEAP (H1299); format: cell-based, human; conditions: PhTERT-SEAP(hTERT-H1299)
Protocol: (§1) Secreted alkaine phosphatase was used as the reporter system to monitor the transcriptional activity of hTERT. Here, about […] each were grown in 96-well plates and incubated at 37° C. for 24 h and changed with fresh media. Varying amounts of drugs were added and cells were incubated for another 24 h. Culture media were collected and heated at 65° C. for 10 min to inactivate heat-labile phosphatases. An equal amount of SEAP buffer (2 M diethanolamine, 1 mM MgCl2, and 20 mM […]) was added to the media and p-nitrophenyl phosphate was added to a final concentration of 12 mM. Absorptions at 405 nm were taken, and the rate of absorption increase is determined.
(§2) Culture media were changed every 3 days. […] The stable clones were selected using G418.

[6] = system: transcriptional activity of hTERT; experiment: SEAP reporter assay of hTERT expression, PhTERT-SEAP (hTERT-BJ1); format: cell-based, human; conditions: PhTERT-SEAP (hTERT-BJ1)
Protocol: as §1, §2

[7] = system: hepatitis B virus transfected hepatoma cell lines, HepG 2.2.15 cells; experiment: Cytotoxicity assay, 2.2.15 cells; format: cell-based, human; conditions: 48 h of drug exposure

O=C(Nc1ccc(NC(=O)c2ccco2)c2c1C(=O)c1ccccc1C2=O)c1ccco1 [VI24, 1,4-Bis(2-furoylamido)-9,10-anthracenedione]
Relative MTT viability (%) ([1]; 2.3 μM): 91 ± 9.5%
Relative MTT viability (%) ([1]; 23 μM): 69 ± 10.7%
Relative MTT viability (%) ([1]; 234 μM): 72 ± 11.3%
Relative MTT viability (%) ([2]; 2.3 μM): 101 ± 6.0%
Relative MTT viability (%) ([2]; 23 μM): 75 ± 3.9%
Relative MTT viability (%) ([2]; 234 μM): 32 ± 5.1%
IC50 [3]: > 20 µM
IC50 [4]: > 20 µM
Relative SEAP activity (%) ([5]; 2.3 μM): 99 ± 7.8%
SEAP/vibility ([5]; 2.3 μM): 0.99
Relative SEAP activity (%) ([5]; 23 μM): 97 ± 4.6%
SEAP/vibility ([5]; 23 μM): 1.30
Relative SEAP activity (%) ([5]; 234 μM): 90 ± 2.9%
SEAP/vibility ([5]; 234 μM): 2.83
Relative SEAP activity (%) ([6]; 2.3 μM): 39 ± 7.8%
SEAP/vibility ([6]; 2.3 μM): 0.43
Relative SEAP activity (%) ([6]; 23 μM): 45 ± 11.0%
SEAP/vibility ([6]; 23 μM): 0.65
Relative SEAP activity (%) ([6]; 234 μM): 37 ± 15.0%
SEAP/vibility ([6]; 234 μM): 0.51
IC50 [7]: > 20 µM

Cc1cccc(C(=O)Nc2ccc(NC(=O)c3cccc(C)c3)c3c2C(=O)c2ccccc2C3=O)c1 [VI6, 1,4-Bis(3-methylbenzoylamido)-9,10-anthracenedione]
Relative MTT viability (%) ([1]; 2.1 μM): 110 ± 2.6%
Relative MTT viability (%) ([1]; 21 μM): 109 ± 4.6%
Relative MTT viability (%) ([1]; 210 μM): 101 ± 6.0%
Relative MTT viability (%) ([2]; 2.1 μM): 101 ± 5.6%
Relative MTT viability (%) ([2]; 21 μM): 97 ± 6.2%
Relative MTT viability (%) ([2]; 210 μM): 83 ± 7.8%
IC50 [3]: > 20 µM
IC50 [4]: > 20 µM
Relative SEAP activity (%) ([5]; 2.1 μM): 107 ± 4.6%
SEAP/vibility ([5]; 2.1 μM): 1.06
Relative SEAP activity (%) ([5]; 21 μM): 104 ± 4.0%
SEAP/vibility ([5]; 21 μM): 1.08
Relative SEAP activity (%) ([5]; 210 μM): 99 ± 9.1%
SEAP/vibility ([5]; 210 μM): 1.20
Relative SEAP activity (%) ([6]; 2.1 μM): 97 ± 17.1%
SEAP/vibility ([6]; 2.1 μM): 0.88
Relative SEAP activity (%) ([6]; 21 μM): 78 ± 7.1%
SEAP/vibility ([6]; 21 μM): 0.71
Relative SEAP activity (%) ([6]; 210 μM): 70 ± 5.8%
SEAP/vibility ([6]; 210 μM): 0.69
IC50 [7]: > 20 µM

O=C(Nc1ccc(NC(=O)c2ccccc2F)c2c1C(=O)c1ccccc1C2=O)c1ccccc1F [VI10, 1,4-Bis(2-fluorobenzoylamido)-9,10-anthracenedione]
Relative MTT viability (%) ([1]; 2.0 μM): 106 ± 6.5%
Relative MTT viability (%) ([1]; 20 μM): 105 ± 8.5%
Relative MTT viability (%) ([1]; 207 μM): 86 ± 7.3%
Relative MTT viability (%) ([2]; 2.0 μM): 116 ± 2.4%
Relative MTT viability (%) ([2]; 20 μM): 104 ± 6.1%
Relative MTT viability (%) ([2]; 207 μM): 77 ± 2.6%
IC50 [3]: > 20 µM
IC50 [4]: > 20 µM
Relative SEAP activity (%) ([5]; 2.0 μM): 105 ± 7.8%
SEAP/vibility ([5]; 2.0 μM): 0.91
Relative SEAP activity (%) ([5]; 20 μM): 107 ± 11.9%
SEAP/vibility ([5]; 20 μM): 1.03
Relative SEAP activity (%) ([5]; 207 μM): 103 ± 14.4%
SEAP/vibility ([5]; 207 μM): 1.34
Relative SEAP activity (%) ([6]; 2.0 μM): 95 ± 8.9%
SEAP/vibility ([6]; 2.0 μM): 0.90
Relative SEAP activity (%) ([6]; 20 μM): 96 ± 9.8%
SEAP/vibility ([6]; 20 μM): 0.96
Relative SEAP activity (%) ([6]; 207 μM): 79 ± 7.4%
SEAP/vibility ([6]; 207 μM): 0.92
IC50 [7]: > 20 µM

1,4-Bis[3-(aminomethyl)cyclopropanepropionamido]-9,10-anthracenedione [VI37]
Relative MTT viability (%) ([1]; 2.0 μM): 95 ± 2.5%
Relative MTT viability (%) ([1]; 20 μM): 84 ± 1.5%
Relative MTT viability (%) ([1]; 204 μM): 35 ± 3.7%
Relative MTT viability (%) ([2]; 2.0 μM): 108 ± 7.8%
Relative MTT viability (%) ([2]; 20 μM): 83 ± 1.6%
Relative MTT viability (%) ([2]; 204 μM): 67 ± 9.8%
IC50 [3]: 0.4 µM
IC50 [4]: 0.32 µM
Relative SEAP activity (%) ([5]; 2.0 μM): 95 ± 4.2%
SEAP/vibility ([5]; 2.0 μM): 0.88
Relative SEAP activity (%) ([5]; 20 μM): 91 ± 8.9%
SEAP/vibility ([5]; 20 μM): 1.09
Relative SEAP activity (%) ([5]; 204 μM): 52 ± 4.4%
SEAP/vibility ([5]; 204 μM): 0.77
Relative SEAP activity (%) ([6]; 2.0 μM): 97 ± 13.8%
SEAP/vibility ([6]; 2.0 μM): 1.02
Relative SEAP activity (%) ([6]; 20 μM): 124 ± 22.8%
SEAP/vibility ([6]; 20 μM): 1.48
Relative SEAP activity (%) ([6]; 204 μM): 105 ± 17.7%
SEAP/vibility ([6]; 204 μM): 3.01
IC50 [7]: 1.71 µM

O=C(Nc1ccc(NC(=O)c2ccc(F)cc2F)c2c1C(=O)c1ccccc1C2=O)c1ccc(F)cc1F [VI18, 1,4-Bis(2,4-difluorobenzoylamido)-9,10-anthracenedione]
Relative MTT viability (%) ([1]; 1.9 μM): 104 ± 5.6%
Relative MTT viability (%) ([1]; 19 μM): 101 ± 4.4%
Relative MTT viability (%) ([1]; 192 μM): 103 ± 6.1%
Relative MTT viability (%) ([2]; 1.9 μM): 87 ± 3.7%
Relative MTT viability (%) ([2]; 19 μM): 85 ± 7.1%
Relative MTT viability (%) ([2]; 192 μM): 69 ± 8.4%
IC50 [3]: > 20 µM
IC50 [4]: > 20 µM
Relative SEAP activity (%) ([5]; 1.9 μM): 93 ± 5.6%
SEAP/vibility ([5]; 1.9 μM): 1.06
Relative SEAP activity (%) ([5]; 19 μM): 99 ± 5.4%
SEAP/vibility ([5]; 19 μM): 1.17
Relative SEAP activity (%) ([5]; 192 μM): 99 ± 1.8%
SEAP/vibility ([5]; 192 μM): 1.44
Relative SEAP activity (%) ([6]; 1.9 μM): 48 ± 21.7%
SEAP/vibility ([6]; 1.9 μM): 0.46
Relative SEAP activity (%) ([6]; 19 μM): 51 ± 18.5%
SEAP/vibility ([6]; 19 μM): 0.50
Relative SEAP activity (%) ([6]; 192 μM): 48 ± 23.1%
SEAP/vibility ([6]; 192 μM): 0.46
IC50 [7]: > 20 µM

From patent publication US20050009924A1 (priority 2003, published 2005)
